Measured values taken from patent publication US8067413B2, “9-substituted-8-oxo-adenine compounds as toll-like receptor (TLR7 ) modulators” (AstraZeneca AB, priority 2007, dated 2011).

What follows are compounds tested against T1, Recombinant human TLR7 (Homo sapiens, UniProt Q9NYK1) (assay: Human TLR7 Assay (SEAP reporter in HEK293 cells)). Settings: HEK293 cell line stably expressing human TLR7 and pNiFty2-SEAP reporter; SEAP induction after overnight incubation at 37° C., 0.1% (v/v) DMSO.
T1 construct: expressed in transfected cells; host or cells: HEK293 cell line stably expressing the pNiFty2-SEAP reporter plasmid; TLR7 in pUNO vector
T1 sequence (Q9NYK1 27-1049): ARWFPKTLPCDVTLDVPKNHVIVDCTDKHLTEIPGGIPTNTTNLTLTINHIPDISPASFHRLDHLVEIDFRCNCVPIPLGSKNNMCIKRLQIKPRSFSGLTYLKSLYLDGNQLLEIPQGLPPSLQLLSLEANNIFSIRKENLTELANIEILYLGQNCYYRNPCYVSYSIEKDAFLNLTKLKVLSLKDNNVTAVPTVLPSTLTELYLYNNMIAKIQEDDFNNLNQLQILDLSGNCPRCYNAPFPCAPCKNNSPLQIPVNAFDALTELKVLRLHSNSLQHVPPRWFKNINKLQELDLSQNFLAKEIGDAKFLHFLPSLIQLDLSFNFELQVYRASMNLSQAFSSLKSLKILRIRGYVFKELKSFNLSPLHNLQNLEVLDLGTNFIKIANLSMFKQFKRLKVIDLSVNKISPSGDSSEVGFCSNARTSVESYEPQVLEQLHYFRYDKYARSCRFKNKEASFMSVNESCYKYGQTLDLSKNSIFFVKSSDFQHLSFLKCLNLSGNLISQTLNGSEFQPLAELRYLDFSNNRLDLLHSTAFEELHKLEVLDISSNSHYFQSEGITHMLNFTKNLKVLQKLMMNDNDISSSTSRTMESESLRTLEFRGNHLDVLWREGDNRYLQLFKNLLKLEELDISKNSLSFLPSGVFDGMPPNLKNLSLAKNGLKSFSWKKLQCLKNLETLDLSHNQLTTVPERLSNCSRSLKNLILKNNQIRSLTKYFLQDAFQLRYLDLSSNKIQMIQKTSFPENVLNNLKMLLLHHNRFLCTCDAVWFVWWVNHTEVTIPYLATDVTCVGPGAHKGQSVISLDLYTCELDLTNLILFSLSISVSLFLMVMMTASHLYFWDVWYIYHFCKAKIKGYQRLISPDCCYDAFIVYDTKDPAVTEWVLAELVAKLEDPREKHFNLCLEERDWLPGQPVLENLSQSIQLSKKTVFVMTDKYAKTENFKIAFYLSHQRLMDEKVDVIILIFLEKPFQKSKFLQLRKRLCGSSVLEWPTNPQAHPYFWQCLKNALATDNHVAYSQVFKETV
Assay type: cell-based
Excerpt: Recombinant human TLR7 was stably expressed in a HEK293 cell line already stably expressing the pNiFty2-SEAP reporter plasmid; integration of the reporter gene was maintained by selection with the antibiotic zeocin. The most common variant sequence of human TLR7 (represented by the EMBL sequence AF240467) was cloned into the mammalian cell expression vector pUNO and transfected into this reporter cell-line. Transfectants with stable expression were selected using the antibiotic blasticidin. In this reporter cell-line, expression of secreted alkaline phosphatase (SEAP) is controlled by an NFkB/ELAM-1 composite promoter comprising five NFkB sites combined with the proximal ELAM-1 promoter. TLR signaling leads to the translocation of NFkB and to activation of the promoter results in expression of the SEAP gene. TLR7-specific activation was assessed by determining the level of SEAP produced following overnight incubation of the cells at 37° C. with the standard compound in the presence of 0.1% (v/v) dimethylsulfoxide (DMSO). Concentration dependent induction of SEAP production by compounds was expressed as the concentration of compound which produced half of the maximal level of SEAP induction for that compound (pEC50)

First: CCCCOc1nc(N)c2[nH]c(=O)n(CCCN3CCCC3)c2n1 [Example 1, 6-Amino-2-butoxy-9-(3-pyrrolidin-1-ylpropyl)-7,9-dihydro-8H-purin-8-one]
Second: CCCCOc1nc(N)c2[nH]c(=O)n(CCCN3CCC[C@H]3COC)c2n1 [Example 3, 6-Amino-2-butoxy-9-{3-[(25)-2-(methoxymethyl)pyrrolidin-1-yl]propyl}-7,9-dihydro-8H-purin-8-one]
The EC50 of the first is 6.3-fold lower: 398 nM for the first, 2510 nM for the second.

Compared with `CCCCOc1nc(N)c2[nH]c(=O)n(CCCN3CCC[C@H]3C(=O)N(C)C)c2n1` [Example 2, 1-[3-(6-Amino-2-butoxy-8-oxo-7,8-dihydro-9H-purin-9-yl)propyl]-N,N-dimethyl-L-prolinamide], `CCCCOc1nc(N)c2[nH]c(=O)n(CCCN(C)CC(=O)N(C)C)c2n1` [Example 4, N^2-[3-(6-Amino-2-butoxy-8-oxo-7,8-dihydro-9H-purin-9-yl)propyl]-N^1,N^1,N^2-trimethylglycinamide] is 13-fold lower in EC50: 3160 nM for the first, 251 nM for the second.
